Structures can show the parent of a compound that is named as a salt.
Tests used:
Format in all cases: cell-based
[1] = system: Klebsiella pneumoniae XNWB 0005; test: MIC assay of test compounds combined with imipenem (4 μg/mL); conditions: imipenem 4 μg/mL fixed
In short: (§1)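 Inoculum: TSA-grown colonies (35±2 °C, 20-24 h, subcultured once), NaCl 0.9% suspension at OD600 0.1-0.15, then 300× dilution into 1.1×CAMHB. Serial compound dilutions with the partner antibiotic at a fixed level; ambient-air incubation 16-20 h, 35±2 °C; CLSI-based MIC readout.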

[2] = system: Klebsiella pneumoniae XNWB 0001; test: as above; conditions: imipenem 4 μg/mL fixed
In short: as §1

[3] = system: Klebsiella pneumoniae XNWB 0002; test: as above; conditions: imipenem 4 μg/mL fixed
In short: as §1

[4] = system: Klebsiella pneumoniae XNWB 0003; test: as above; conditions: imipenem 4 μg/mL fixed
In short: as §1

[5] = system: Acinetobacter baumannii XNWB 0007; test: as above; conditions: imipenem 4 μg/mL fixed
In short: as §1

[6] = system: Pseudomonas aeruginosa XNWB 0008; test: as above; conditions: imipenem 4 μg/mL fixed
In short: as §1

[7] = system: Klebsiella pneumoniae XNWB 0006; test: as above; conditions: imipenem 4 μg/mL fixed
In short: as §1

[8] = system: Klebsiella pneumoniae XNWB 0004; test: as above; conditions: imipenem 4 μg/mL fixed
In short: as §1

[9] = system: Klebsiella pneumoniae XNWB 0005; test: MIC assay of test compounds combined with ceftazidime (8 μg/mL); conditions: ceftazidime 8 μg/mL fixed
In short: as §1

[10] = system: Klebsiella pneumoniae XNWB 0001; test: as above; conditions: ceftazidime 8 μg/mL fixed
In short: as §1

[11] = system: Klebsiella pneumoniae XNWB 0002; test: as above; conditions: ceftazidime 8 μg/mL fixed
In short: as §1

[12] = system: Klebsiella pneumoniae XNWB 0003; test: as above; conditions: ceftazidime 8 μg/mL fixed
In short: as §1

[13] = system: Acinetobacter baumannii XNWB 0007; test: as above; conditions: ceftazidime 8 μg/mL fixed
In short: as §1

[14] = system: Pseudomonas aeruginosa XNWB 0008; test: as above; conditions: ceftazidime 8 μg/mL fixed
In short: as §1

[15] = system: Klebsiella pneumoniae XNWB 0006; test: as above; conditions: ceftazidime 8 μg/mL fixed
In short: as §1

[16] = system: Klebsiella pneumoniae XNWB 0004; test: as above; conditions: ceftazidime 8 μg/mL fixed
In short: as §1

SMILES	The minimum concentration of test compounds combined with imipenem (4 μg/mL) for bacteriostasis [1]	The minimum concentration of test compounds combined with imipenem (4 μg/mL) for bacteriostasis [2]	The minimum concentration of test compounds combined with imipenem (4 μg/mL) for bacteriostasis [3]	The minimum concentration of test compounds combined with imipenem (4 μg/mL) for bacteriostasis [4]	The minimum concentration of test compounds combined with imipenem (4 μg/mL) for bacteriostasis [5]	The minimum concentration of test compounds combined with imipenem (4 μg/mL) for bacteriostasis [6]	The minimum concentration of test compounds combined with imipenem (4 μg/mL) for bacteriostasis [7]	The minimum concentration of test compounds combined with imipenem (4 μg/mL) for bacteriostasis [8]	The minimum concentration of test compounds combined with ceftazidime (8 μg/mL) for bacteriostasis [9]	The minimum concentration of test compounds combined with ceftazidime (8 μg/mL) for bacteriostasis [10]	The minimum concentration of test compounds combined with ceftazidime (8 μg/mL) for bacteriostasis [11]	The minimum concentration of test compounds combined with ceftazidime (8 μg/mL) for bacteriostasis [12]	The minimum concentration of test compounds combined with ceftazidime (8 μg/mL) for bacteriostasis [13]	The minimum concentration of test compounds combined with ceftazidime (8 μg/mL) for bacteriostasis [14]	The minimum concentration of test compounds combined with ceftazidime (8 μg/mL) for bacteriostasis [15]	The minimum concentration of test compounds combined with ceftazidime (8 μg/mL) for bacteriostasis [16]
O=C1N2C[C@H](N1OS(=O)(=O)O)C1(CC1)C[C@H]2c1cc(COC2CNC2)on1 [Example 50, (1R,4S)-4-(5-((azetidin-3-yloxy)methyl)isoxazol-3-yl)-6-oxo-5,7-diazaspiro[bicycle [3.2.1]octane-2,1′-cyclopropan]-7-yl sulfate]	A (A: <8 μg/mL)	A (A: <8 μg/mL)	A (A: <8 μg/mL)	A (A: <8 μg/mL)	C (C: 16-128 μg/mL)	A (A: <8 μg/mL)	A (A: <8 μg/mL)	A (A: <8 μg/mL)	A (A: <8 μg/mL)	A (A: <8 μg/mL)	A (A: <8 μg/mL)	A (A: <8 μg/mL)	C (C: 16-128 μg/mL)	B (B: 8-16 μg/mL)	A (A: <8 μg/mL)	B (B: 8-16 μg/mL)
N=C1NCC(c2nnc([C@@H]3CC4(CC4)[C@@H]4CN3C(=O)N4OS(=O)(=O)O)o2)N1 (stereo partly drawn) [Example 8, (1R,4S)-4-(5-(2-iminoimidazolidin-4-yl)-1,3,4-oxadiazol-2-yl)-6-oxo-5,7-diazaspiro [bicyclo[3.2.1]octane-2,1′-cyclopropan]-7-yl sulfate]	A (A: <8 μg/mL)	A (A: <8 μg/mL)	A (A: <8 μg/mL)	A (A: <8 μg/mL)	A (A: <8 μg/mL)	A (A: <8 μg/mL)	A (A: <8 μg/mL)	A (A: <8 μg/mL)	A (A: <8 μg/mL)	A (A: <8 μg/mL)	A (A: <8 μg/mL)	A (A: <8 μg/mL)	C (C: 16-128 μg/mL)	B (B: 8-16 μg/mL)	A (A: <8 μg/mL)	A (A: <8 μg/mL)
N[C@H]1C[C@H](Cc2nnc([C@@H]3CC4(CC4)[C@@H]4CN3C(=O)N4OS(=O)(=O)O)o2)C1 [Example 20, (1R,4S)-4-(5-(((1S,3S)-3-aminocyclobutyl)methyl)-1,3,4-oxadiazol-2-yl)-6-oxo-5,7-diazaspiro[bicyclo[3.2.1]octane-2,1′-cyclopropan]-7-yl sulfate]	A (A: <8 μg/mL)	A (A: <8 μg/mL)	A (A: <8 μg/mL)	A (A: <8 μg/mL)	B (B: 8-16 μg/mL)	A (A: <8 μg/mL)	A (A: <8 μg/mL)	A (A: <8 μg/mL)	A (A: <8 μg/mL)	A (A: <8 μg/mL)	A (A: <8 μg/mL)	A (A: <8 μg/mL)	C (C: 16-128 μg/mL)	B (B: 8-16 μg/mL)	A (A: <8 μg/mL)	A (A: <8 μg/mL)
N[C@H]1C[C@@H](c2nnc([C@@H]3CC4(CC4)[C@@H]4CN3C(=O)N4OS(=O)(=O)O)o2)C1 [Example 15, (1R,4S)-4-(5-((1S,3R)-3-aminocyclobutyl)-1,3,4-oxadiazol-2-yl)-6-oxo-5,7-diazaspiro [bicyclo[3.2.1]octane-2,1′-cyclopropan]-7-yl sulfate]	A (A: <8 μg/mL)	A (A: <8 μg/mL)	A (A: <8 μg/mL)	A (A: <8 μg/mL)	C (C: 16-128 μg/mL)	B (B: 8-16 μg/mL)	A (A: <8 μg/mL)	A (A: <8 μg/mL)	A (A: <8 μg/mL)	A (A: <8 μg/mL)	A (A: <8 μg/mL)	A (A: <8 μg/mL)	C (C: 16-128 μg/mL)	C (C: 16-128 μg/mL)	A (A: <8 μg/mL)	B (B: 8-16 μg/mL)
